Measurements from patent publication US9073858B2, “Methods of targeted drug development” (priority 2010, dated 2015).
Read-outs that look alike come from different tables or passages of the source.

Legend:
EGFR = target: T1, EGFR (Homo sapiens, UniProt P00533); experiment: EGFR in-cell Western (ICW) screening protocol; assay type: cell-based; set-up: unit not given here; settings: for ICW Screen: initial screen
T1 construct: endogenous in cells; host or cells: A431 cells (ATCC CRL-1555)
How it was run: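 Serum-starved cells treated with compound 4 h at 37 °C, then stimulated with EGF (20 or 0 ng/ml solution added) in its continued presence. In-cell Western on fixed cells: phospho-EGFR (800 channel) normalised to total EGFR (700 channel), % inhibition calculated against EGF-stimulated and unstimulated no-compound wells.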

MDBK line = experiment: MTT Cell Proliferation Assay, MDBK line; assay type: cell-based, bovine
How it was run: (§1)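 Cells plated overnight, then exposed 3 days at 37 °C, 5% CO2 to compound in growth medium with 0.5% FBS and 0.5% DMSO final (0.5% DMSO as control).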

[1] = tested on: epithelial carcinoma A431 cell line; experiment: MTT Cell Proliferation Assay, A431 cell line; assay type: cell-based; settings: for MTT (10 Point follow-up) ratio / MTT-72 h A431/MDBK (ratio): value in brackets; for MTT (10 Point follow-up) ratio: numerically MDBK over A431; for MTT-72 h A431/MDBK (ratio): numerically MDBK value over A431 value
How it was run: as §1

[2] = Bos taurus, MDBK, 10 point follow-up, second value of pair, read-out: MTT (10 Point follow-up) MDBK
[3] = Bos taurus, MDBK, 72 h, second value of A431/MDBK pair, read-out: MTT-72 h MDBK
[4] = Homo sapiens, A-431, 10 point follow-up, first value of pair, read-out: MTT (10 Point follow-up) A431
[5] = Homo sapiens, A-431, 72 h, 72 h, first value of A431/MDBK pair, read-out: MTT-72 h A431
[6] = 72 h, second value of A431/MDBK pair, read-out: MTT-72 h MDBK
[7] = 72 h, first value of A431/MDBK pair, read-out: MTT-72 h A431
[8] = 10 point follow-up, second value of pair, read-out: MTT (10 Point follow-up) MDBK
[9] = 10 point follow-up, first value of pair, read-out: MTT (10 Point follow-up) A431

T1 sequence (P00533 25-1210): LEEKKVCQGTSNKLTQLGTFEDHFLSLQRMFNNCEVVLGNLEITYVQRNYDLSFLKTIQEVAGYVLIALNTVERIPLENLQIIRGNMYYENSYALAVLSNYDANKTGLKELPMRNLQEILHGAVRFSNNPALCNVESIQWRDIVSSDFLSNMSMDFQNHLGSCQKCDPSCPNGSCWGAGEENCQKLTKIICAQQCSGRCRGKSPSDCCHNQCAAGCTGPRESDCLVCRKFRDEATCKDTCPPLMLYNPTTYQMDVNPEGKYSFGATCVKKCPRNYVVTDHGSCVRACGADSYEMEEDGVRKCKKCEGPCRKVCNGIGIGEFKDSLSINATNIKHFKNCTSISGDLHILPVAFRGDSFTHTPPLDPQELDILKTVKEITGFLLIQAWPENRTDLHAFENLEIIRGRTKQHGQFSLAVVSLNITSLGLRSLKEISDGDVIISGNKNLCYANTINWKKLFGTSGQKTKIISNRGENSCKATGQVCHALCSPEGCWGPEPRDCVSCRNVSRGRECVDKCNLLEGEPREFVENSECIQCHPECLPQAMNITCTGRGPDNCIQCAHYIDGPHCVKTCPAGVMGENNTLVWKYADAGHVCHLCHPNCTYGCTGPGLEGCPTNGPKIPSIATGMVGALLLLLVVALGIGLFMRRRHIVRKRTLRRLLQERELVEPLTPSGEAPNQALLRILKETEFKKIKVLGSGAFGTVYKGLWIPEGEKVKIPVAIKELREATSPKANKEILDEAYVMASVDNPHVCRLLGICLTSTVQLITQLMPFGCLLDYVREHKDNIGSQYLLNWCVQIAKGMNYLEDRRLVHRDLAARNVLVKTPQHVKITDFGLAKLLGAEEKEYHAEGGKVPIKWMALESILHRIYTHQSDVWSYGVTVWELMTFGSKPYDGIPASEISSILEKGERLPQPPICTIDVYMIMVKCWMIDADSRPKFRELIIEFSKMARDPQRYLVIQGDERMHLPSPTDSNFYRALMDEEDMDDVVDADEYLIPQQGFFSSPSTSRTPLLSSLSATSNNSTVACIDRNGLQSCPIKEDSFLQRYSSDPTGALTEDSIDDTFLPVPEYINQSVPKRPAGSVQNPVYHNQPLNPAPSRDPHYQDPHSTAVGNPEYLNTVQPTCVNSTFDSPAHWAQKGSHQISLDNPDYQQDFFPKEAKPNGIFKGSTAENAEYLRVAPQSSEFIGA

| Compound | ICW Screen (EGFR) | IC50 (MDBK line; [2]) [nM] | IC50 (MDBK line; [3]) [nM] | MTT (10 Point follow-up) ratio ([1]; 10 point follow-up) | MTT-72 h A431/MDBK (ratio) ([1]; 72 h) | IC50 [1, 4] [nM] | IC50 [1, 5] [nM] | ICW Re-Test (EGFR) | IC50 (MDBK line; [6]) [nM] | IC50 [1, 7] [nM] | MTT (10 Point follow-up) % Max ([1]; 10 point follow-up, maximal effect) [%] | IC50 (MDBK line; [8]) [nM] | IC50 [1, 9] [nM] |
| --- | --- | --- | --- | --- | --- | --- | --- | --- | --- | --- | --- | --- | --- |
| Oc1c(C(Nc2ccccn2)c2cccc(Cl)c2)cc(Cl)c2cccnc12 (stereo not shown) [compound 10097] | 28.02 | 2070 | 6090 | 1.66 | 0.98 | 1250 | 6230 | – | – | – | – | – | – |
| Oc1c(C(Nc2ccccn2)c2cccc(Br)c2)cc(Cl)c2cccnc12 (stereo not shown) [compound 10100] | 18.12 | 1720 | – | 1.62 | – | 1060 | – | – | – | – | – | – | – |
| CCOc1ccc(C(Nc2ccccn2)c2cc(Cl)c3cccnc3c2O)cc1 (stereo not shown) [compound 10101] | 44.01 | 2590 | – | 0.90 | 1.66 | 2880 | – | 7.53 | 9520 | 5770 | – | – | – |
| Oc1c(C(Nc2ccccn2)c2c(F)cccc2Cl)cc(Cl)c2cccnc12 (stereo not shown) [compound 10105] | 3.88 | 850 | 1450 | 1.40 | 1.12 | 605 | 1290 | – | – | – | 77 | – | – |
| COc1ccc(Br)cc1C(Nc1ccccn1)c1cc(Cl)c2cccnc2c1O (stereo not shown) [compound 10108] | 15.91 | 1730 | – | 1.53 | – | 1130 | – | – | – | – | – | – | – |
| Oc1c(C(Nc2ccccn2)c2ccc(Cl)c(Cl)c2)ccc2cccnc12 (stereo not shown) [compound 10109] | 12.75 | 1380 | – | 2.58 | – | 534 | – | – | – | – | – | – | – |
| CCOc1ccc(C(Nc2cc(C)ccn2)c2ccc3cccnc3c2O)cc1OCC (stereo not shown) [compound 10143] | 45.61 | – | 4330 | – | 0.92 | – | 4740 | 27.18 | – | – | – | – | – |
| C=CCOc1cccc(C(Nc2cc(C)ccn2)c2ccc3cccnc3c2O)c1 (stereo not shown) [compound 10144] | 39.73 | – | 5290 | – | 0.93 | – | 5670 | 21.02 | – | – | – | – | – |
| Oc1c(C(Nc2cccnc2)c2cccs2)ccc2cccnc12 (stereo not shown) [compound 10315] | 80.77 | 783 | 5690 | 1.12 | 1.26 | 697 | 4520 | 92.46 | – | – | – | – | – |
| Oc1ccccc1C(Nc1ccccn1)c1ccc2cccnc2c1O (stereo not shown) [compound 10427] | 43.39 | – | 4820 | – | 0.87 | – | 5560 | 43.82 | – | – | – | – | – |
| Cc1ccc(NC(c2ccccc2O)c2ccc3cccnc3c2O)nc1 (stereo not shown) [compound 10430] | 43.81 | – | 5580 | – | 0.86 | – | 6470 | 48.57 | – | – | – | – | – |
| Oc1c(C(Nc2ccccn2)c2ccc(OC(F)F)cc2)ccc2cccnc12 (stereo not shown) [compound 10466] | 17.15 | 775 | 950 | 1.08 | 1.31 | 717 | 730 | – | – | – | – | – | – |
| Cc1ccnc(NC(c2ccc(Cl)cc2)c2ccc3cccnc3c2O)c1 (stereo not shown) [compound 10481] | 25.82 | 1230 | – | 1.54 | – | 798 | – | – | – | – | – | – | – |
| Oc1c(C(Nc2ccccn2)c2ccccc2Cl)ccc2cccnc12 (stereo not shown) [compound 10482] | 16.45 | 455 | – | 1.28 | – | 356 | – | – | – | – | – | – | – |
| Cc1cccc(NC(c2ccc(C(F)(F)F)cc2)c2ccc3cccnc3c2O)n1 (stereo not shown) [compound 10483] | 17.58 | – | – | – | – | – | – | – | 490 | 260 | – | 481 | 253 |
| Oc1c(C(Nc2ccccn2)c2ccc(Cl)cc2Cl)ccc2cccnc12 (stereo not shown) [compound 10484] | 26.3 | – | 850 | 2.12 | 2.70 | – | 320 | – | – | – | – | 679 | 305 |
| Cc1ccnc(NC(c2ccc(C(F)(F)F)cc2)c2ccc3cccnc3c2O)c1 (stereo not shown) [compound 10486] | 25.02 | 844 | 800 | 3.07 | 2.76 | 275 | 290 | – | – | – | – | – | – |
| Cc1cccc(NC(c2ccc3c(c2)OCO3)c2ccc3cccnc3c2O)n1 (stereo not shown) [compound 10487] | 33.14 | 963 | 5280 | 0.72 | 0.96 | 1330 | – | – | – | 5510 | – | – | – |
| Cc1ccnc(NC(c2ccccc2F)c2ccc3cccnc3c2O)c1 (stereo not shown) [compound 10488] | 15.95 | 2220 | – | 1.20 | – | 1850 | – | – | – | – | – | – | – |
| Oc1cccnc1NC(c1ccc(F)cc1)c1ccc2cccnc2c1O (stereo not shown) [compound 10509] | 31.55 | 1950 | 2050 | 1.56 | 1.60 | 1250 | 1280 | – | – | – | – | – | – |
| Oc1cccnc1NC(c1ccccc1F)c1ccc2cccnc2c1O (stereo not shown) [compound 10512] | 12.86 | 991 | – | 1.92 | – | 517 | – | – | – | – | – | – | – |
| COc1ccc(C(Nc2ccccn2)c2ccc3cccnc3c2O)cc1OC (stereo not shown) [compound 10518] | 39.93 | – | 5430 | – | 0.83 | – | 6520 | 51.72 | – | – | – | – | – |
